Patent US9480750B2, “Preparation of antibody or an antibody fragment targeted immunoliposomes for systemic administration of therapeutic or diagnostic agents and uses thereof” (GEORGETOWN UNIVERSITY, priority 1999, dated 2016)
Structures can show the parent of a compound that is named as a salt. Where two headings read alike, the source gives them in different places.

Assays:
[1] = tested on: MDA-MB-435 human melanoma cells; experiment: In vitro chemosensitization, XTT; assay type: cell-based
cleaved caspase-3 = experiment: Western blot of cleaved caspase-3 from mice serum; assay type: in vivo, C57BL/6 mice; conditions: CDDP alone
Description: The blood collected from the retroorbital sinus of mice was centrifuged at 1,000 rpm for 10 minutes at room temperature after coagulation at room temperature for 1 hr. The serum was transferred to a new tube and centrifuged again at 10,000 g for 20 minutes. The supernatant serum was purified using a P-30 Micro-Bio-Spin Chromatography Column (BIORAD, Hercules, Calif.). Fifteen microliters of the fractions was loaded on a 4% to 12% gradient NuPAGE gel (Invitrogen Life Technologies, Carlsbad, Calif.) and run until the 10 kDa protein marker has run off the gel (approximately 1.5 to 2 hours). After electrophoresis, the proteins were transferred onto a Protran BA 85 nitrocellulose transfer membrane (Schleicher and Schuell, BioScience, Keene, N. H.). Finally, a Western blot analysis for cleaved caspase-3 was performed with cleaved caspase-3 (17 kD) antibody. To block nonspecific binding, the membrane was incubated at room temperature for 1 hour with 5% nonfat dry milk in 10 mM Tris-HCl buffer, pH 8.0, containing 150 mM NaCl and 0.05% Tween 20 (TBST). […] The protein was detected using goat antirabbit secondary antibody (Jackson ImmunoResearch Laboratories, West Grove, Pa.), ECL Western blotting detection reagent, and Hyperfilm ECL (Amersham, Piscataway, N.J.).

[2] = tested on: DU145 human prostate cancer cells; experiment: In vitro chemosensitization, XTT; assay type: cell-based
[3] = TARCEVA plus gemcitabine; cited from earlier work
[4] = tested on: normal skin fibroblast cell line H500
[5] = administered orally; cited from earlier work
[6] = cited from earlier work
advanced NSCLC = conditions: previously-treated advanced NSCLC; cited from earlier work
[7] = tested on: Panc I subcutaneous xenograft tumors; experiment: In vivo chemosensitization of pancreatic xenograft; parameters: species or system mice; conditions: GEMZAR alone, intraperitoneally
Description: To show the universality of this delivery system two different human xenograft mouse tumor models (pancreatic cancer and breast cancer) were employed. In the first (FIG. 10A) Panc I subcutaneous xenograft tumors were induced in female athymic nude (NCR nu/nu) mice. When the tumors were 100-200 mm^3 in size the animals were injected with the chemotherapeutic agent GEMZAR® (intraperitoneally) and with […]-2 prepared by the method of this invention (I.V.). […] In addition to the I.V. injections the complex described above also was intratumorally injected. One group of animals received GEMZAR® only and a second control group received GEMZAR® plus the complex carrying empty vector.

[8] = tested on: normal human lung fibroblasts IMR-90; experiment: In vitro chemosensitization of normal cells, XTT; assay type: cell-based; conditions: 2.5 uM Sunitinib malate, FIG. 43A-C
Description: The above sensitization results with B16/F10 and MDA-MB-435 were dramatically different from the results with normal human lung fibroblasts IMR-90 under the same conditions. […] The ratio of single-chain antibody fragment to liposome in each complex was 1:30 (w:w). […] After 48 hours, XTT assays were performed to assess cell viability in response to treatments. Each point represents the mean of triplicate samples±standard deviation. […] UT=untransfected.

Cc1ccc(NC(=O)c2ccc(CN3CCN(C)CC3)cc2)cc1Nc1nccc(-c2cccnc2)n1 [Imatinib Mesylate]
sensitization to TAXOTERE ([1]; 20 uM Imatinib Mesylate): does not sensitize the cells

[NH2][Pt]([NH2])([Cl])[Cl] [CDDP, cisplatin]
cleaved caspase-3 in serum (cleaved caspase-3): only a weak band

C#Cc1cccc(Nc2ncnc3cc(OCCOC)c(OCCOC)cc23)c1 [Erlotinib, N-(3-ethynylphenyl)-6,7-bis(2-methoxyethoxy)-4-quinazolinamine]
sensitization to TAXOTERE ([1]; free Erlotinib): only minimal effect | sensitization to Mitoxantrone ([2]; 3.75 uM Erlotinib): does not sensitize the cells to Mitoxantrone | sensitization to Mitoxantrone ([2]; 7.5 uM Erlotinib): had no effect on the response to the chemotherapeutic agent | Diarrhea [3]: 48% | Rash [3]: 69% | dose reductions due to rash and diarrhea, each [3]: two percent | study discontinuation due to rash and diarrhea [3]: up to one percent | sensitization to Mitoxantrone, TAXOTERE or Gemcitabine ([4]; 7.5 uM Erlotinib, FIG. 36A-C): no significant increase in sensitization | half-lives [5]: ~36 h | incidence of ILD-like events ([6]; NSCLC single-agent trial): 0.8% | Grade 3/4 diarrhea ([6]; monotherapy 150 mg, NSCLC): 6% | Grade 3/4 rash ([6]; monotherapy 150 mg, NSCLC): 9% | patients discontinuing due to rash or diarrhea, each ([6]; monotherapy 150 mg, NSCLC): 1%

COc1cc2ncnc(Nc3ccc(F)c(Cl)c3)c2cc1OCCCN1CCOCC1 [Geftinib, Gefitinib]
sensitization to TAXOTERE ([1]; free Geftinib, 15 µM): did not sensitize the cells at all | patients achieving tumor shrinkage or stabilization of their tumor (advanced NSCLC): Approximately 50% | half-lives [5]: ~46 h

Nc1ccn([C@@H]2O[C@H](CO)[C@@H](O)C2(F)F)c(=O)n1 [GEMZAR®, gemcitabine HCl]
tumor growth [7]: not able to significantly inhibit pancreatic tumor growth

CCN(CC)CCNC(=O)c1c(C)[nH]c(/C=C2\C(=O)Nc3ccc(F)cc32)c1C [Sunitinib malate]
sensitization to Mitoxantrone ([2]; 5 μM free Sunitinib malate): only minimal effect on sensitization | sensitization to Mitoxantrone, TAXOTERE or Gemcitabine [8]: no significant increase in sensitization | sensitization to Mitoxantrone, TAXOTERE or Gemcitabine ([4]; 2.5 or 5 uM Sunitinib malate, FIG. 42A-C): no significant increase in sensitization
